{"source": "the supplement of paper PMC10307832", "data": [{"compound": "C1=CC2=C(C=C(C(=C2N=C1)O)N=NC3=CC4=C(C=C3)C=C(C=C4)S(=O)(=O)O)S(=O)(=O)O + Nc1nc2[nH]cc(CCc3ccc(C(=O)N[C@@H](CCC(=O)O)C(=O)O)cc3)c2c(=O)[nH]1 [Pemetrexed] (partner 0.2 µM)", "experiment": "relative viability (nuclei count vs DMSO), 5 days (fraction); higher = more cells survive", "details": "first compound 8 µM", "in_short": "(§1)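 Each reported value is a median over duplicate plates. It expresses relative viability: treated-well nuclei count divided by vehicle-well nuclei count. Lung cancer cell lines in 1536-well plates were dosed by pin tool a day after seeding, alone with one drug or with a fixed anchor-drug dose plus five library-drug doses (not always all listed) in √10 steps, and nuclei were counted after 5 days.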", "values": [{"cell line": "NCI-H2009", "relative viability": 0.988}, {"cell line": "A-427", "relative viability": 0.996}, {"cell line": "NCI-H441", "relative viability": 0.297}, {"cell line": "NCI-H661", "relative viability": 0.901}, {"cell line": "NCI-H1734", "relative viability": 0.443}, {"cell line": "NCI-H460", "relative viability": 0.0698}, {"cell line": "NCI-H2347", "relative viability": 0.343}, {"cell line": "SK-LU-1", "relative viability": 1.01}, {"cell line": "201T", "relative viability": 0.354}, {"cell line": "NCI-H1915", "relative viability": 0.446}, {"cell line": "HCC-827", "relative viability": 0.246}, {"cell line": "LXF-289", "relative viability": 0.885}, {"cell line": "NCI-H23", "relative viability": 0.693}, {"cell line": "NCI-H647", "relative viability": 0.168}, {"cell line": "CAL-12T", "relative viability": 1.13}, {"cell line": "NCI-H1651", "relative viability": 0.54}, {"cell line": "EPLC-272H", "relative viability": 0.379}, {"cell line": "NCI-H2228", "relative viability": 0.324}, {"cell line": "NCI-H1355", "relative viability": 0.872}, {"cell line": "NCI-H3122", "relative viability": 0.182}, {"cell line": "NCI-H1437", "relative viability": 0.308}, {"cell line": "NCI-H1755", "relative viability": 0.425}, {"cell line": "NCI-H2023", "relative viability": 0.14}, {"cell line": "HCC-15", "relative viability": 0.24}, {"cell line": "PC-14", "relative viability": 0.11}, {"cell line": "EKVX", "relative viability": 0.388}, {"cell line": "LC-2-ad", "relative viability": 0.274}, {"cell line": "NCI-H1975", "relative viability": 0.303}, {"cell line": "RERF-LC-KJ", "relative viability": 0.457}]}, {"compound": "O=C(NC1CCNCC1)c1n[nH]cc1NC(=O)c1c(Cl)cccc1Cl [AT-7519] + CC(C)C[C@H](NC(=O)[C@H](Cc1ccccc1)NC(=O)c1cnccn1)B(O)O [Bortezomib] (partner 0.002 µM)", "experiment": "relative viability (nuclei count vs DMSO), 5 days (fraction); higher = more cells survive", "details": "first compound 0.01 µM", "in_short": "as §1", "values": [{"cell line": "ChaGo-K-1", "relative viability": 1.03}, {"cell line": "NCI-H2405", "relative viability": 0.978}, {"cell line": "HOP-62", "relative viability": 0.723}, {"cell line": "LU99A", "relative viability": 1.15}, {"cell line": "BEN", "relative viability": 0.958}, {"cell line": "HARA", "relative viability": 1.14}, {"cell line": "HCC-78", "relative viability": 0.479}, {"cell line": "NCI-H322M", "relative viability": 1.2}, {"cell line": "LCLC-97TM1", "relative viability": 1.22}, {"cell line": "NCI-H2009", "relative viability": 1.08}, {"cell line": "A-427", "relative viability": 1.02}, {"cell line": "NCI-H441", "relative viability": 0.449}, {"cell line": "NCI-H661", "relative viability": 0.743}, {"cell line": "NCI-H1734", "relative viability": 0.782}, {"cell line": "NCI-H460", "relative viability": 1.05}, {"cell line": "NCI-H2347", "relative viability": 0.916}, {"cell line": "SK-LU-1", "relative viability": 1.08}, {"cell line": "201T", "relative viability": 1.08}, {"cell line": "NCI-H1915", "relative viability": 1.07}, {"cell line": "HCC-827", "relative viability": 1.1}, {"cell line": "LXF-289", "relative viability": 0.951}, {"cell line": "NCI-H23", "relative viability": 0.983}, {"cell line": "NCI-H647", "relative viability": 1.04}, {"cell line": "NCI-H1651", "relative viability": 0.912}, {"cell line": "EPLC-272H", "relative viability": 1.03}, {"cell line": "NCI-H2228", "relative viability": 0.977}, {"cell line": "NCI-H1355", "relative viability": 1.26}, {"cell line": "NCI-H3122", "relative viability": 1.03}, {"cell line": "NCI-H1437", "relative viability": 0.448}, {"cell line": "NCI-H1755", "relative viability": 0.927}, {"cell line": "NCI-H2023", "relative viability": 1.12}, {"cell line": "HCC-15", "relative viability": 1.07}, {"cell line": "PC-14", "relative viability": 0.807}, {"cell line": "EKVX", "relative viability": 0.978}, {"cell line": "LC-2-ad", "relative viability": 0.962}, {"cell line": "NCI-H1975", "relative viability": 0.352}, {"cell line": "RERF-LC-KJ", "relative viability": 1.1}]}, {"compound": "O=C(NC1CCNCC1)c1n[nH]cc1NC(=O)c1c(Cl)cccc1Cl [AT-7519] + CC(C)C[C@H](NC(=O)[C@H](Cc1ccccc1)NC(=O)c1cnccn1)B(O)O [Bortezomib] (partner 0.002 µM)", "experiment": "relative viability (nuclei count vs DMSO), 5 days (fraction); higher = more cells survive", "details": "first compound 0.03162 µM", "in_short": "as §1", "values": [{"cell line": "ChaGo-K-1", "relative viability": 1.37}, {"cell line": "NCI-H2405", "relative viability": 1.04}, {"cell line": "HOP-62", "relative viability": 0.825}, {"cell line": "LU99A", "relative viability": 1.07}, {"cell line": "BEN", "relative viability": 0.766}, {"cell line": "HARA", "relative viability": 1.16}, {"cell line": "HCC-78", "relative viability": 0.38}, {"cell line": "NCI-H322M", "relative viability": 1.26}, {"cell line": "LCLC-97TM1", "relative viability": 0.58}, {"cell line": "NCI-H2009", "relative viability": 0.908}, {"cell line": "A-427", "relative viability": 0.961}, {"cell line": "NCI-H441", "relative viability": 0.394}, {"cell line": "NCI-H661", "relative viability": 0.755}, {"cell line": "NCI-H1734", "relative viability": 0.884}, {"cell line": "NCI-H460", "relative viability": 0.91}, {"cell line": "NCI-H2347", "relative viability": 0.873}, {"cell line": "SK-LU-1", "relative viability": 1.14}, {"cell line": "201T", "relative viability": 1.03}, {"cell line": "NCI-H1915", "relative viability": 1.06}, {"cell line": "HCC-827", "relative viability": 1.1}, {"cell line": "LXF-289", "relative viability": 1.05}, {"cell line": "NCI-H23", "relative viability": 1.04}, {"cell line": "NCI-H647", "relative viability": 0.909}, {"cell line": "CAL-12T", "relative viability": 0.929}, {"cell line": "NCI-H1651", "relative viability": 0.917}, {"cell line": "EPLC-272H", "relative viability": 0.973}, {"cell line": "NCI-H2228", "relative viability": 0.801}, {"cell line": "NCI-H1355", "relative viability": 1.16}, {"cell line": "NCI-H3122", "relative viability": 1.01}, {"cell line": "NCI-H1437", "relative viability": 0.514}, {"cell line": "NCI-H1755", "relative viability": 1.09}, {"cell line": "NCI-H2023", "relative viability": 0.985}, {"cell line": "HCC-15", "relative viability": 1.01}, {"cell line": "PC-14", "relative viability": 0.71}, {"cell line": "EKVX", "relative viability": 0.911}, {"cell line": "LC-2-ad", "relative viability": 0.978}, {"cell line": "NCI-H1975", "relative viability": 0.301}, {"cell line": "RERF-LC-KJ", "relative viability": 1.14}]}, {"compound": "O=C(NC1CCNCC1)c1n[nH]cc1NC(=O)c1c(Cl)cccc1Cl [AT-7519] + CC(C)C[C@H](NC(=O)[C@H](Cc1ccccc1)NC(=O)c1cnccn1)B(O)O [Bortezomib] (partner 0.002 µM)", "experiment": "relative viability (nuclei count vs DMSO), 5 days (fraction); higher = more cells survive", "details": "first compound 0.3162 µM", "in_short": "as §1", "values": [{"cell line": "ChaGo-K-1", "relative viability": 0.763}, {"cell line": "NCI-H2405", "relative viability": 1.02}, {"cell line": "HOP-62", "relative viability": 0.827}, {"cell line": "LU99A", "relative viability": 1.14}, {"cell line": "BEN", "relative viability": 0.935}, {"cell line": "HARA", "relative viability": 1.1}, {"cell line": "HCC-78", "relative viability": 0.6}, {"cell line": "NCI-H322M", "relative viability": 1.27}, {"cell line": "LCLC-97TM1", "relative viability": 0.379}, {"cell line": "NCI-H2009", "relative viability": 0.96}, {"cell line": "A-427", "relative viability": 1.04}, {"cell line": "NCI-H441", "relative viability": 0.671}, {"cell line": "NCI-H661", "relative viability": 0.786}, {"cell line": "NCI-H1734", "relative viability": 0.842}, {"cell line": "NCI-H460", "relative viability": 0.533}, {"cell line": "NCI-H2347", "relative viability": 0.952}, {"cell line": "201T", "relative viability": 1.1}, {"cell line": "NCI-H1915", "relative viability": 0.546}, {"cell line": "HCC-827", "relative viability": 1.05}, {"cell line": "LXF-289", "relative viability": 0.957}, {"cell line": "NCI-H23", "relative viability": 0.852}, {"cell line": "NCI-H647", "relative viability": 1.21}, {"cell line": "CAL-12T", "relative viability": 0.593}, {"cell line": "NCI-H1651", "relative viability": 0.971}, {"cell line": "EPLC-272H", "relative viability": 0.723}, {"cell line": "NCI-H2228", "relative viability": 0.66}, {"cell line": "NCI-H1355", "relative viability": 1.31}, {"cell line": "NCI-H3122", "relative viability": 1.06}, {"cell line": "NCI-H1437", "relative viability": 0.494}, {"cell line": "NCI-H1755", "relative viability": 0.976}, {"cell line": "NCI-H2023", "relative viability": 0.855}, {"cell line": "HCC-15", "relative viability": 0.852}, {"cell line": "PC-14", "relative viability": 0.861}, {"cell line": "EKVX", "relative viability": 0.996}, {"cell line": "LC-2-ad", "relative viability": 1.02}, {"cell line": "NCI-H1975", "relative viability": 0.433}, {"cell line": "RERF-LC-KJ", "relative viability": 1.08}]}, {"compound": "O=C(NC1CCNCC1)c1n[nH]cc1NC(=O)c1c(Cl)cccc1Cl [AT-7519] + CC(C)C[C@H](NC(=O)[C@H](Cc1ccccc1)NC(=O)c1cnccn1)B(O)O [Bortezomib] (partner 0.002 µM)", "experiment": "relative viability (nuclei count vs DMSO), 5 days (fraction); higher = more cells survive", "details": "first compound 1 µM", "in_short": "as §1", "values": [{"cell line": "ChaGo-K-1", "relative viability": 0.96}, {"cell line": "NCI-H2405", "relative viability": 0.863}, {"cell line": "HOP-62", "relative viability": 0.718}, {"cell line": "LU99A", "relative viability": 0.988}, {"cell line": "BEN", "relative viability": 0.82}, {"cell line": "HARA", "relative viability": 1.06}, {"cell line": "HCC-78", "relative viability": 0.516}, {"cell line": "NCI-H322M", "relative viability": 1.52}, {"cell line": "LCLC-97TM1", "relative viability": 0.123}, {"cell line": "NCI-H2009", "relative viability": 0.704}, {"cell line": "A-427", "relative viability": 0.792}, {"cell line": "NCI-H441", "relative viability": 0.497}, {"cell line": "NCI-H661", "relative viability": 0.567}, {"cell line": "NCI-H1734", "relative viability": 0.442}, {"cell line": "NCI-H460", "relative viability": 0.046}, {"cell line": "NCI-H2347", "relative viability": 1.27}, {"cell line": "SK-LU-1", "relative viability": 1.15}, {"cell line": "201T", "relative viability": 1.09}, {"cell line": "NCI-H1915", "relative viability": 0.944}, {"cell line": "HCC-827", "relative viability": 1.06}]}]}
